Patent EP0120428A1, “Benzopyran isomers” (BEECHAM GROUP PLC, priority 1983, dated 1984)

Legend:
[1] = disclosed in European patent publication 9912; cited from earlier work
[2] = test system: Spontaneously hypertensive rats; experiment: Systolic blood pressure and heart rate by modified tail cuff method in spontaneously hypertensive rats; assay type: in vivo; settings: 0.3 mg/kg p.o.; for %Change in Systolic Blood Blood: initial blood pressure 180±7mmHg; for %Change in Heart Rate: initial heart rate 507±5beats/min
Description: Systolic blood pressures were recorded by a modification of the tail cuff method described by I.M. Claxton, M.G. Palfreyman, R.H. Poyser, R.L. Whiting, European Journal of Pharmacology, 37, 179 (1976).
W+W BP recorder, model 8005, was used to display pulses. Prior to all measurments rats were placed in a heated environment (33.5±0.5°C) before transfer to a restraining cage. Each determination of blood pressure was the mean of at least 6 readings. Spontaneously hypertensive rats (ages 12-18 weeks) with systolic blood pressures >170 mmHg were considered hypertensive.

[3] = 5 rats, 2 hours post dose (2 rats had no measurable pulse)
[4] = 5 rats, 4 hours post dose (3 rats had no measurable pulse)
[5] = 5 rats, 6 hours post dose (2 rats had no measurable pulse)
[6] = 24 hours post dose (4 rats only)

Compound | blood pressure lowering activity [1] | %Change in Systolic Blood Blood ([2]; 5 rats, 1 hour post dose) [%] | %Change in Systolic Blood Blood [2, 3] [%] | %Change in Systolic Blood Blood [2, 4] [%] | %Change in Systolic Blood Blood [2, 5] [%] | %Change in Heart Rate ([2]; 5 rats, 1 hour post dose) [%] | %Change in Heart Rate [2, 3] [%] | %Change in Heart Rate [2, 4] [%] | %Change in Heart Rate [2, 5] [%] | %Change in Systolic Blood Blood [2, 6] [%] | %Change in Heart Rate [2, 6] [%]
CC1(C)Oc2ccc(C#N)cc2[C@@H](N2CCCC2)[C@@H]1O (relative stereo) [6-cyano-3,4-dihydro-2,2-dimethyl-trans 4-pyrrolidino-2H-benzo[b]pyran-3-ol] | has blood pressure lowering activity | – | – | – | – | – | – | – | – | – | –
CC1(C)Oc2ccc(C#N)cc2[C@@H](N2CCCC2=O)[C@@H]1O (relative stereo) [Compound (1) of Example (3S,4R)-isomer, 6-cyano-3,4-dihydro-2,2-dimethyl-trans-4-(2-oxo-1-pyrrolidinyl)-2H-benzo[b]pyran-3-ol] | – | -59 ± 4 | -52 ± 7 | -32 | -28 ± 8 | -2 ± 2 | -6 ± 3 | -15 | -5 ± 1 | -14 ± 7 | -3 ± 2
CC1(C)Oc2ccc(C#N)cc2[C@@H](N2CCCC2)[C@@H]1O (single isomer, unassigned; isomer 6) [(+)-isomer, 6-cyano-3,4-dihydro-2,2-dimethyl-trans 4-pyrrolidino-2H-benzo[b]pyran-3-ol] | greater blood pressure lowering activity than the (-)- isomer | – | – | – | – | – | – | – | – | – | –
